From patent US6365753B1, “Phthalimides and herbicide containing the same as active component” (Mitsubishi Chemical Corporation, priority 1998, dated 2002) come the findings set out here.
Further: ranges in brackets are in %.

One test deals with Echinochloa crus-galli. Put plainly: Submerged treatment test. The test is classed as in vivo. Particulars: 10 g/a active ingredient, treated 5th day from sowing, examined on the 2.8th day from treatment, herbicidal index. The protocol: (§1) Alluvial soil from a paddy field was put in a resin-made pot having an area of 200 cm^2. After fertilization, an adequate amount of water was added, and the soil was puddled and leveled. Seeds of Echinochloa crus-galli, Monochoria vaginalis, Rotala indica and Scirpus juncoides were sowed within a layer 0.5 cm below the surface of the soil. Water was poured onto the soil to keep a water depth of 3.5 cm.
(§2) On the 5th day from the sowing, the emulsifiable concentrate containing the compound of the invention as an active ingredient which was prepared in Formulation Example 3 was diluted with water. A prescribed amount of the diluted composition was dropped to the water so as to give 10 g of the active ingredient per are.
(§3) Cultivation was continued in a greenhouse, and the herbicidal effect was examined on the […] from the treatment. The results obtained are shown in Table 4 (the compound numbers in Table 4 correspond to those in Tables 1 and 2). The herbicidal effect was evaluated in terms of herbicidal index based on Y(%) obtained from equation:
(§4) y=[1−(Weight of weeds above the ground in a treated pot)/(Weight of weeds above the ground in a non-treated pot)]×100 (%)
For `CCCOC(=O)C(Cl)Cc1cc(N2C(=O)c3ccccc3C2=O)c(F)cc1Cl` (stereo not drawn) [Compound 6], the “Herbicidal Effect Echinochloa crus-galli” value was 5 (91-100).
Same read-out and setting: then `CC(C)OC(=O)C(Cl)Cc1cc(N2C(=O)c3ccccc3C2=O)c(F)cc1Cl` (stereo not drawn) [Compound 7, Isopropyl 2-Chloro-3-(2-chloro-4-fluoro-5-phthalimidophenyl)propionate], with 5 (91-100); and `C=CCNC(=O)C(Cl)Cc1cc(N2C(=O)c3ccccc3C2=O)c(F)cc1Cl` (stereo not drawn) [Compound 12], with 5 (91-100).

The subject of a further test is Monochoria vaginalis. Description: Submerged treatment test. The test is classed as in vivo. Particulars: 10 g/a active ingredient, treated 5th day from sowing, examined on the 2.8th day from treatment, herbicidal index. The protocol: as §1, §2, §3, §4
As to `CCCOC(=O)C(Cl)Cc1cc(N2C(=O)c3ccccc3C2=O)c(F)cc1Cl` (stereo not drawn) [Compound 6], the “Herbicidal Effect Monochoria vaginalis” value is on record as 5 (91-100).
Still for that read-out and setting: then `CC(C)OC(=O)C(Cl)Cc1cc(N2C(=O)c3ccccc3C2=O)c(F)cc1Cl` (stereo not drawn) [Compound 7, Isopropyl 2-Chloro-3-(2-chloro-4-fluoro-5-phthalimidophenyl)propionate], with 5 (91-100); and `C=CCNC(=O)C(Cl)Cc1cc(N2C(=O)c3ccccc3C2=O)c(F)cc1Cl` (stereo not drawn) [Compound 12], with 5 (91-100).

A further test concerns Rotala indica. Put plainly: Submerged treatment test. The test is classed as in vivo. The settings on record: 10 g/a active ingredient, treated 5th day from sowing, examined on the 2.8th day from treatment, herbicidal index. As for the experimental part:
as §1, §2, §3, §4
For `CCCOC(=O)C(Cl)Cc1cc(N2C(=O)c3ccccc3C2=O)c(F)cc1Cl` (stereo not drawn) [Compound 6], the “Herbicidal Effect Rotala indica” value is listed as 5 (91-100).
On the same count and under the same terms, to `CC(C)OC(=O)C(Cl)Cc1cc(N2C(=O)c3ccccc3C2=O)c(F)cc1Cl` (stereo not drawn) [Compound 7, Isopropyl 2-Chloro-3-(2-chloro-4-fluoro-5-phthalimidophenyl)propionate] belongs 5 (91-100); to `C=CCNC(=O)C(Cl)Cc1cc(N2C(=O)c3ccccc3C2=O)c(F)cc1Cl` (stereo not drawn) [Compound 12], 5 (91-100).

The subject of a further test is Scirpus juncoides. Put plainly: Submerged treatment test. The test is classed as in vivo. Particulars: 10 g/a active ingredient, treated 5th day from sowing, examined on the 2.8th day from treatment, herbicidal index. The protocol:
as §1, §2, §3, §4
On to `CCCOC(=O)C(Cl)Cc1cc(N2C(=O)c3ccccc3C2=O)c(F)cc1Cl` (stereo not drawn) [Compound 6], for which the “Herbicidal Effect Scirpus juncoides” value is recorded as 5 (91-100).
With `CC(C)OC(=O)C(Cl)Cc1cc(N2C(=O)c3ccccc3C2=O)c(F)cc1Cl` (stereo not drawn) [Compound 7, Isopropyl 2-Chloro-3-(2-chloro-4-fluoro-5-phthalimidophenyl)propionate], the “Herbicidal Effect Scirpus juncoides” value was 5 (91-100).
On the same count and under the same terms, then `C=CCNC(=O)C(Cl)Cc1cc(N2C(=O)c3ccccc3C2=O)c(F)cc1Cl` (stereo not drawn) [Compound 12], with 1 (6-30).

In a further test the test system is Chenopodium album. Description: Soil treatment test pre-emergence application. The test is classed as in vivo. Particulars: 10 g/a active ingredient, 28th day from treatment, herbicidal index. As for the experimental part:
(§5) Volcanic ash soil from a field was put in a resin-made pot having an area of 200 cm^2. After fertilization, soil previously mixed uniformly with the seeds of Digitaria ciliaris, Setaria viridis, Chenopodium album and Polygonum lapathifolium was scattered on the soil. The emulsifiable concentrate comprising the compound of the invention as an active ingredient which was obtained in Formulation Example 3 was diluted with water, and a prescribed amount of the diluted composition was sprayed uniformly to the surface of the soil by means of a small-sized power pressure spray to give 10 g of the active ingredient per are.
(§6) Thereafter, cultivation was continued in a greenhouse, and the herbicidal effect was examined on the 28th day from the treatment. The results obtained are shown in Table 5 (the compound numbers in Table 5 correspond to those in Tables 1 and 2). The herbicidal effect was evaluated based on the same criteria as in Test Example 1.
Take `CCCOC(=O)C(Cl)Cc1cc(N2C(=O)c3ccccc3C2=O)c(F)cc1Cl` (stereo not drawn) [Compound 6]: the “Herbicidal Effect Chenopodium album” value was 5 (91-100).
`CC(C)OC(=O)C(Cl)Cc1cc(N2C(=O)c3ccccc3C2=O)c(F)cc1Cl` (stereo not drawn) [Compound 7, Isopropyl 2-Chloro-3-(2-chloro-4-fluoro-5-phthalimidophenyl)propionate]: the “Herbicidal Effect Chenopodium album” value was 5 (91-100).
Still for that read-out and setting: then `C=CCNC(=O)C(Cl)Cc1cc(N2C(=O)c3ccccc3C2=O)c(F)cc1Cl` (stereo not drawn) [Compound 12], with 5 (91-100).

A further test relates to Digitaria ciliaris. Put plainly: Soil treatment test pre-emergence application. The test is classed as in vivo. Particulars: 10 g/a active ingredient, 28th day from treatment, herbicidal index. The protocol: as §5, §6
Take `CCCOC(=O)C(Cl)Cc1cc(N2C(=O)c3ccccc3C2=O)c(F)cc1Cl` (stereo not drawn) [Compound 6]: the “Herbicidal Effect Digitaria ciliaris” value is reported as 0 (0-5).
Still for that read-out and setting: to `CC(C)OC(=O)C(Cl)Cc1cc(N2C(=O)c3ccccc3C2=O)c(F)cc1Cl` (stereo not drawn) [Compound 7, Isopropyl 2-Chloro-3-(2-chloro-4-fluoro-5-phthalimidophenyl)propionate] belongs 1 (6-30).
The same measure, in the same setting: then `C=CCNC(=O)C(Cl)Cc1cc(N2C(=O)c3ccccc3C2=O)c(F)cc1Cl` (stereo not drawn) [Compound 12], with 4 (71-90).

The next test concerns Polygonum lapathifolium. Put plainly: Soil treatment test pre-emergence application. Particulars: 10 g/a active ingredient, 28th day from treatment, herbicidal index. The test is classed as in vivo. As for the experimental part:
as §5, §6
Turning to `CCCOC(=O)C(Cl)Cc1cc(N2C(=O)c3ccccc3C2=O)c(F)cc1Cl` (stereo not drawn) [Compound 6], the “Herbicidal Effect Polygonum lapathifolium” value is 5 (91-100).
As for `CC(C)OC(=O)C(Cl)Cc1cc(N2C(=O)c3ccccc3C2=O)c(F)cc1Cl` (stereo not drawn) [Compound 7, Isopropyl 2-Chloro-3-(2-chloro-4-fluoro-5-phthalimidophenyl)propionate], the “Herbicidal Effect Polygonum lapathifolium” value is reported as 5 (91-100).
As for `C=CCNC(=O)C(Cl)Cc1cc(N2C(=O)c3ccccc3C2=O)c(F)cc1Cl` (stereo not drawn) [Compound 12], the “Herbicidal Effect Polygonum lapathifolium” value was 4 (71-90).

The test system of the next test is Setaria viridis. Description: Soil treatment test pre-emergence application. The test is classed as in vivo. Particulars: 10 g/a active ingredient, 28th day from treatment, herbicidal index. The protocol:
as §5, §6
Consider `CCCOC(=O)C(Cl)Cc1cc(N2C(=O)c3ccccc3C2=O)c(F)cc1Cl` (stereo not drawn) [Compound 6], for which the “Herbicidal Effect Setaria viridis” value is given as 0 (0-5).
The same measure, in the same setting: to `CC(C)OC(=O)C(Cl)Cc1cc(N2C(=O)c3ccccc3C2=O)c(F)cc1Cl` (stereo not drawn) [Compound 7, Isopropyl 2-Chloro-3-(2-chloro-4-fluoro-5-phthalimidophenyl)propionate] belongs 1 (6-30).
In the case of `C=CCNC(=O)C(Cl)Cc1cc(N2C(=O)c3ccccc3C2=O)c(F)cc1Cl` (stereo not drawn) [Compound 12], the “Herbicidal Effect Setaria viridis” value was 4 (71-90).

The subject of the next test is Alopeculus aequalis. Put plainly: Foliar treatment test (1) post-emergence application. The test is classed as in vivo. The settings on record: foliar treatment post-emergence at 1.0- to 2.0-leaf stage, 10 g/a active ingredient, 21st day from treatment; herbicidal index. The protocol:
(§7) Volcanic ash soil from a field was put in a resin-made pot having an area of 200 cm^2. After fertilization, the seeds of Brassica juncea, Ipomoea purpurea, Echinochloa crus-galli and Alopeculus aequalis were cast on the soil and uniformly covered with the soil.
(§8) Cultivation was continued in a greenhouse, and when the weeds reached the 1.0- to 2.0-leaf stage, a prescribed amount of the emulsifiable concentrate comprising the compound of the invention as an active ingredient which was prepared in Formulation Example 3 as diluted with water was sprayed uniformly to the weeds by means of a small-sized power pressure spray to give 10 g of the active ingredient per are.
(§9) Thereafter, cultivation was further continued in the greenhouse, and the herbicidal effect was examined on the 21st day from the treatment. The results obtained are shown in Table 6 (the compound numbers in Table 6 correspond to those in Tables 1 and 2). The herbicidal effect was evaluated based on the same criteria as in Test Example 1.
Turning to `CCCOC(=O)C(Cl)Cc1cc(N2C(=O)c3ccccc3C2=O)c(F)cc1Cl` (stereo not drawn) [Compound 6], the “Herbicidal Effect Alopeculus sequalis” value was 2 (31-50).
On the same count and under the same terms, to `CC(C)OC(=O)C(Cl)Cc1cc(N2C(=O)c3ccccc3C2=O)c(F)cc1Cl` (stereo not drawn) [Compound 7, Isopropyl 2-Chloro-3-(2-chloro-4-fluoro-5-phthalimidophenyl)propionate] belongs 2 (31-50); to `C=CCNC(=O)C(Cl)Cc1cc(N2C(=O)c3ccccc3C2=O)c(F)cc1Cl` (stereo not drawn) [Compound 12], 2 (31-50).

Another test deals with Brassica juncea. Described as above. The test is classed as in vivo. Particulars: foliar treatment post-emergence at 1.0- to 2.0-leaf stage, 10 g/a active ingredient, 21st day from treatment; herbicidal index. The protocol: as §7, §8, §9
For `CCCOC(=O)C(Cl)Cc1cc(N2C(=O)c3ccccc3C2=O)c(F)cc1Cl` (stereo not drawn) [Compound 6], the “Herbicidal Effect Brassica juncea” value is 5 (91-100).
`CC(C)OC(=O)C(Cl)Cc1cc(N2C(=O)c3ccccc3C2=O)c(F)cc1Cl` (stereo not drawn) [Compound 7, Isopropyl 2-Chloro-3-(2-chloro-4-fluoro-5-phthalimidophenyl)propionate]: the “Herbicidal Effect Brassica juncea” value is 5 (91-100).
The same measure, in the same setting: to `C=CCNC(=O)C(Cl)Cc1cc(N2C(=O)c3ccccc3C2=O)c(F)cc1Cl` (stereo not drawn) [Compound 12] belongs 5 (91-100).

The next test concerns Echinochloa crus-galli. The test is described as above. The test is classed as in vivo. Particulars: foliar treatment post-emergence at 1.0- to 2.0-leaf stage, 10 g/a active ingredient, 21st day from treatment; herbicidal index. The protocol:
as §7, §8, §9
For `CCCOC(=O)C(Cl)Cc1cc(N2C(=O)c3ccccc3C2=O)c(F)cc1Cl` (stereo not drawn) [Compound 6], the “Herbicidal Effect Echinochloa crus-galli” value is 2 (31-50).
On the same count and under the same terms, then `CC(C)OC(=O)C(Cl)Cc1cc(N2C(=O)c3ccccc3C2=O)c(F)cc1Cl` (stereo not drawn) [Compound 7, Isopropyl 2-Chloro-3-(2-chloro-4-fluoro-5-phthalimidophenyl)propionate], with 3 (51-70); and `C=CCNC(=O)C(Cl)Cc1cc(N2C(=O)c3ccccc3C2=O)c(F)cc1Cl` (stereo not drawn) [Compound 12], with 4 (71-90).

The test system of the next test is Ipomoea purpurea. The test is described as above. The settings on record: foliar treatment post-emergence at 1.0- to 2.0-leaf stage, 10 g/a active ingredient, 21st day from treatment; herbicidal index. The test is classed as in vivo. As for the experimental part:
as §7, §8, §9
`CCCOC(=O)C(Cl)Cc1cc(N2C(=O)c3ccccc3C2=O)c(F)cc1Cl` (stereo not drawn) [Compound 6]: the “Herbicidal Effect Ipompoea-purpurea” value is on record as 5 (91-100).
On to `CC(C)OC(=O)C(Cl)Cc1cc(N2C(=O)c3ccccc3C2=O)c(F)cc1Cl` (stereo not drawn) [Compound 7, Isopropyl 2-Chloro-3-(2-chloro-4-fluoro-5-phthalimidophenyl)propionate], for which the “Herbicidal Effect Ipompoea-purpurea” value was 5 (91-100).
For `C=CCNC(=O)C(Cl)Cc1cc(N2C(=O)c3ccccc3C2=O)c(F)cc1Cl` (stereo not drawn) [Compound 12], the “Herbicidal Effect Ipompoea-purpurea” value is 5 (91-100).
